Results on one molecule are retold here after US20050107394A1, “Novel use of selective pde5 inhibitors” (priority 2001, published 2005).

The test system of this test is patients with COPD (chronic obstructive pulmonary disease). In words: 6-minutes walking test in COPD patients. Type of test: in vivo, human. To be noted: 6 months. An excerpt: FIG. 7: Result of the 6-minutes walking test measured on 4 patients with COPD (chronic obstructive pulmonary disease). […]

Each structure is given as a SMILES string. Values joined by “and” are separate entries in the source; they are usually repeats but may differ in a detail not shown here. Equal entries are not always repeated.

Consider `CCCc1nn(C)c2c(=O)[nH]c(-c3cc(S(=O)(=O)N4CCN(C)CC4)ccc3OCC)nc12` [sildenafil, 5-[2-ethoxy-5-(4-methyl-1-piperazinyl-sulphonyl)phenyl]-1-methyl-3-n-propyl-1,6-dihydro-7H-pyrazolo[4,3-d]pyrimidin-7-one], for which the “6-minutes walking distance, improvement compared with the starting point (0 months), one value per patient” value (4 COPD patients, 75 mg sildenafil oral each day) was 41% and 45% and 74% and 150%. Besides, the “functional capacity (6-min walking, arterial O2 saturation), words” value (4 patients, 50 mg/d sildenafil oral) is “marked improvement”.
